Tests used:
Assay type in all cases: functional
[1] = Antiproliferative activity against human COLO205 cells assessed as growth inhibition after 48 hrs by sulforhodamine B assay; details: COLO 205, 48 h; for CC50: read-out: LC50 (the source's name)
EKVX [2] = experiment: Antiproliferative activity against human EKVX cells assessed as growth inhibition after 48 hrs by sulforhodamine B assay; details: for CC50: read-out: LC50 (the source's name)
HT-29 [3] = experiment: Antiproliferative activity against human HT-29 cells assessed as growth inhibition after 48 hrs by sulforhodamine B assay; details: HT-29, 48 h
[4] = Antiproliferative activity against human HCC2998 cells assessed as growth inhibition after 48 hrs by sulforhodamine B assay; details: HCC 2998, 48 h; for CC50: read-out: LC50 (the source's name)
[5] = Antiproliferative activity against human SF295 cells assessed as growth inhibition after 48 hrs by sulforhodamine B assay; details: SF-295, 48 h; for CC50: read-out: LC50 (the source's name)
786-0 = experiment: Antiproliferative activity against human 786-0 cells assessed as growth inhibition after 48 hrs by sulforhodamine B assay; details: 786-0, 48 h
A498 [6] = experiment: Antiproliferative activity against human A498 cells assessed as growth inhibition after 48 hrs by sulforhodamine B assay; details: A498, 48 h
EKVX [7] = experiment: Antiproliferative activity against human EKVX cells assessed as cell growth at 10^-6 M after 48 hrs by sulforhodamine B assay; details: read-out: Activity
[8] = Antiproliferative activity against human RXF393 cells assessed as cell growth at 10^-7 M after 48 hrs by sulforhodamine B assay; details: RXF 393, 48 h, read-out: Activity
[9] = Antiproliferative activity against human UACC257 cells assessed as cell growth at 10^-7 M after 48 hrs by sulforhodamine B assay; details: UACC-257, 48 h, read-out: Activity
EKVX [10] = experiment: Antiproliferative activity against human EKVX cells assessed as cell growth at 10^-8 M after 48 hrs by sulforhodamine B assay; details: read-out: Activity
[11] = Antiproliferative activity against human RPMI8226 cells assessed as cell growth at 10^-8 M after 48 hrs by sulforhodamine B assay; details: RPMI-8226, 48 h, read-out: Activity
MDA-MB-435 [12] = experiment: Antiproliferative activity against human MDA-MB-435 cells assessed as cell growth at 10^-4 M after 48 hrs by sulforhodamine B assay; details: MDA-MB-435, 48 h, read-out: Activity
MDA-MB-435 [13] = experiment: Antiproliferative activity against human MDA-MB-435 cells assessed as cell growth at 10^-6 M after 48 hrs by sulforhodamine B assay; details: MDA-MB-435, 48 h, read-out: Activity
KM12 = experiment: Antiproliferative activity against human KM12 cells assessed as cell growth at 10^-4 M after 48 hrs by sulforhodamine B assay; details: KM12, 48 h, read-out: Activity
[14] = Antiproliferative activity against human SNB19 cells assessed as cell growth at 10^-4 M after 48 hrs by sulforhodamine B assay; details: SNB-19, 48 h, read-out: Activity
SR = experiment: Antiproliferative activity against human SR cells assessed as cell growth at 10^-8 M after 48 hrs by sulforhodamine B assay; details: read-out: Activity
[15] = Antiproliferative activity against human BT549 cells assessed as cell growth at 10^-4 M after 48 hrs by sulforhodamine B assay; details: BT-549, 48 h, read-out: Activity
HT-29 [16] = experiment: Antiproliferative activity against human HT-29 cells assessed as cell growth at 10^-8 M after 48 hrs by sulforhodamine B assay; details: HT-29, 48 h, read-out: Activity
[17] = Antiproliferative activity against human NCI-ADR-RES cells assessed as cell growth at 10^-7 M after 48 hrs by sulforhodamine B assay; details: read-out: Activity
[18] = Antiproliferative activity against human RPMI8226 cells assessed as cell growth at 10^-6 M after 48 hrs by sulforhodamine B assay; details: RPMI-8226, 48 h, read-out: Activity
T47D = experiment: Antiproliferative activity against human T47D cells assessed as cell growth at 10^-4 M after 48 hrs by sulforhodamine B assay; details: read-out: Activity
[19] = Antiproliferative activity against human SKOV3 cells assessed as cell growth at 10^-7 M after 48 hrs by sulforhodamine B assay; details: SK-OV-3, 48 h, read-out: Activity
[20] = Antiproliferative activity against human BT549 cells assessed as cell growth at 10^-6 M after 48 hrs by sulforhodamine B assay; details: BT-549, 48 h, read-out: Activity
U-251 = experiment: Antiproliferative activity against human U251 cells assessed as cell growth at 10^-4 M after 48 hrs by sulforhodamine B assay; details: U-251, 48 h, read-out: Activity
[21] = Antiproliferative activity against human Hs 578T cells assessed as cell growth at 10^-8 M after 48 hrs by sulforhodamine B assay; details: read-out: Activity
A498 [22] = experiment: Antiproliferative activity against human A498 cells assessed as cell growth at 10^-7 M after 48 hrs by sulforhodamine B assay; details: A498, 48 h, read-out: Activity
K562 [23] = experiment: Antiproliferative activity against human K562 cells assessed as cell growth at 10^-4 M after 48 hrs by sulforhodamine B assay; details: K562, 48 h, read-out: Activity
MCF7 = experiment: Antiproliferative activity against human MCF7 cells assessed as cell growth at 10^-6 M after 48 hrs by sulforhodamine B assay; details: MCF7, 48 h, read-out: Activity
MDA-MB-468 = experiment: Antiproliferative activity against human MDA-MB-468 cells assessed as cell growth at 10^-4 M after 48 hrs by sulforhodamine B assay; details: MDA-MB-468, 48 h, read-out: Activity
NCI-H322M = experiment: Antiproliferative activity against human NCI-H322M cells assessed as cell growth at 10^-7 M after 48 hrs by sulforhodamine B assay; details: read-out: Activity
K562 [24] = experiment: Antiproliferative activity against human K562 cells assessed as cell growth at 10^-8 M after 48 hrs by sulforhodamine B assay; details: K562, 48 h, read-out: Activity
[25] = Antiproliferative activity against human UO31 cells assessed as cell growth at 10^-4 M after 48 hrs by sulforhodamine B assay; details: UO-31, 48 h, read-out: Activity
[26] = Antiproliferative activity against human SNB75 cells assessed as cell growth at 10^-8 M after 48 hrs by sulforhodamine B assay; details: SNB-75, 48 h, read-out: Activity
[27] = Antiproliferative activity against human SF268 cells assessed as cell growth at 10^-7 M after 48 hrs by sulforhodamine B assay; details: SF-268, 48 h, read-out: Activity
NCI-H522 = experiment: Antiproliferative activity against human NCI-H522 cells assessed as cell growth at 10^-8 M after 48 hrs by sulforhodamine B assay; details: NCI-H522, 48 h, read-out: Activity
NCI-H23 = experiment: Antiproliferative activity against human NCI-H23 cells assessed as cell growth at 10^-8 M after 48 hrs by sulforhodamine B assay; details: NCI-H23, 48 h, read-out: Activity

CNC(=O)c1cc(Oc2ccc(NC(=O)Nc3ccc(Cl)c(C(F)(F)F)c3)cc2)ccn1 [SORAFENIB]
GI50 [1]: 2 µM | TGI [1]: 7.94 µM | CC50 [1]: 31.6 µM | GI50 (EKVX [2]): 2.51 µM | TGI (EKVX [2]): 7.94 µM | CC50 (EKVX [2]): 63.1 µM | GI50 (HT-29 [3]): 2 µM | TGI (HT-29 [3]): 7.94 µM | GI50 [4]: 3.16 µM | TGI [4]: 3.16 µM | CC50 [4]: 6.31 µM | TGI [5]: 5.01 µM | CC50 [5]: 31.6 µM | GI50 (786-0): 3.16 µM | TGI (786-0): 10 µM | GI50 (A498 [6]): 2.51 µM | TGI (A498 [6]): 6.31 µM

CNC(=O)c1cc(Oc2ccc3nc(NC(=O)Nc4cc(C(F)(F)F)cc(C(F)(F)F)c4)sc3c2)ccn1
growth at 1 µM (EKVX [7]): 60% | growth at 0.1 µM [8]: 91% | growth at 0.1 µM [9]: 114% | growth at 0.01 µM (EKVX [10]): 81% | growth at 0.01 µM [11]: 104% | growth at 100 µM (MDA-MB-435 [12]): -80% | growth at 1 µM (MDA-MB-435 [13]): 52% | GI50 [1]: 0.822 µM | TGI [1]: 2.32 µM | CC50 [1]: 5.82 µM | growth at 100 µM (KM12): -61% | growth at 100 µM [14]: -45% | growth at 0.01 µM (SR): 99% | growth at 100 µM [15]: -63% | GI50 (EKVX [2]): 1.29 µM | TGI (EKVX [2]): 4.56 µM | CC50 (EKVX [2]): 59.3 µM | growth at 0.01 µM (HT-29 [16]): 97% | GI50 (HT-29 [3]): 1.21 µM | LC50 (HT-29 [3]): 6.17 µM | TGI (HT-29 [3]): 2.73 µM | growth at 0.1 µM [17]: 98% | growth at 1 µM [18]: 51% | growth at 100 µM (T47D): -60% | GI50 [4]: 1.33 µM | TGI [4]: 3.23 µM | CC50 [4]: 7.85 µM | growth at 0.1 µM [19]: 99% | growth at 1 µM [20]: 67% | growth at 100 µM (U-251): -100% | growth at 0.01 µM [21]: 96% | growth at 0.1 µM (A498 [22]): 111% | growth at 100 µM (K562 [23]): -35% | GI50 [5]: 1.08 µM | TGI [5]: 2.41 µM | CC50 [5]: 5.38 µM | growth at 1 µM (MCF7): 52% | growth at 100 µM (MDA-MB-468): -75% | GI50 (786-0): 1.42 µM | LC50 (786-0): 5.76 µM | TGI (786-0): 2.86 µM | GI50 (A498 [6]): 1.02 µM | LC50 (concentration killing 50% of cells) (A498 [6]): 5.97 µM | TGI (A498 [6]): 2.47 µM | growth at 0.1 µM (NCI-H322M): 102% | growth at 0.01 µM (K562 [24]): 104% | growth at 100 µM [25]: -79% | growth at 0.01 µM [26]: 77% | growth at 0.1 µM [27]: 90% | growth at 0.01 µM (NCI-H522): 95% | growth at 0.01 µM (NCI-H23): 93%
